One block for each compound: values may come before it.
Key:
Rattus norvegicus [1] = species: Rattus norvegicus; test: Oral effective dose required for lowering blood pressure in renal hypertensive rats (RHR); assay type: functional
Rattus norvegicus [2] = species: Rattus norvegicus; test: Oral effective dose required for lowering blood pressure in spontaneous hypertensive rats (SHR); assay type: functional
[3] = molecular target: T1, Angiotensin II receptor (AT-1) type-1 (Rattus norvegicus, UniProt P29089+P25095); test: In vitro antagonistic potency against Angiotensin II receptor, type 1 in rat liver; assay type: functional, tissue-based
T1 sequence (P29089 whole entry): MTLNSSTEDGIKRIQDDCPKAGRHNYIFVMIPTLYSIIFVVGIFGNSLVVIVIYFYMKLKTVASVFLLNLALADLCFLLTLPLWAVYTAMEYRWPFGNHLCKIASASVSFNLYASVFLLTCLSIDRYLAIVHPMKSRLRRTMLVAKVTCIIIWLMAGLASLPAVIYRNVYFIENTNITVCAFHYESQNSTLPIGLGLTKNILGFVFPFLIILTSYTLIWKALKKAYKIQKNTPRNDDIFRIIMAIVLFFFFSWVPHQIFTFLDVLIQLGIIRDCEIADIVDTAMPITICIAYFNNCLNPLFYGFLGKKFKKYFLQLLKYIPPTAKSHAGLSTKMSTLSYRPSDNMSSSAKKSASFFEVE
T1 sequence (P25095 whole entry): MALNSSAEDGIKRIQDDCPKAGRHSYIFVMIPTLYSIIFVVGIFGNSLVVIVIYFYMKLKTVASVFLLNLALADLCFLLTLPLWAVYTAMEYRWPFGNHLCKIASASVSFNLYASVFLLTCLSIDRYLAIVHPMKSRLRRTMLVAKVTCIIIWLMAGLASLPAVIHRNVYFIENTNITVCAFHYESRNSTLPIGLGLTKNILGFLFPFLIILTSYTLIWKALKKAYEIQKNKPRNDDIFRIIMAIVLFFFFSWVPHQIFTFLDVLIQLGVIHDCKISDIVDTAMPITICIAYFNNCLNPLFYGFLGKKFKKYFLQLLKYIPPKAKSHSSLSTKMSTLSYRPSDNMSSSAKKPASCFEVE

[4] = Oral bioavailability in rat; assay type: ADME, organism-based; conditions: in vivo
[5] = Oral Bioavailability was evaluated in dog by oral administration; assay type: ADME, organism-based, Canis lupus familiaris; conditions: in vivo
[6] = Oral Bioavailability was evaluated in cynomolgus monkeys by oral administration; assay type: ADME, organism-based, Macaca fascicularis; conditions: cynomolgus monkey, in vivo
Oryctolagus cuniculus [7] = species: Oryctolagus cuniculus; test: (§1) Compound was tested for its antagonistic activity against angiotensin II-induced contractions in rabbit aorta; assay type: functional
[8] = molecular target: T2, Type-1 angiotensin II receptor (Oryctolagus cuniculus, UniProt P34976); test: Binding affinity was evaluated towards Angiotensin II receptor, type 1 in rabbit aorta; assay type: tissue-based
T2 sequence (P34976 whole entry): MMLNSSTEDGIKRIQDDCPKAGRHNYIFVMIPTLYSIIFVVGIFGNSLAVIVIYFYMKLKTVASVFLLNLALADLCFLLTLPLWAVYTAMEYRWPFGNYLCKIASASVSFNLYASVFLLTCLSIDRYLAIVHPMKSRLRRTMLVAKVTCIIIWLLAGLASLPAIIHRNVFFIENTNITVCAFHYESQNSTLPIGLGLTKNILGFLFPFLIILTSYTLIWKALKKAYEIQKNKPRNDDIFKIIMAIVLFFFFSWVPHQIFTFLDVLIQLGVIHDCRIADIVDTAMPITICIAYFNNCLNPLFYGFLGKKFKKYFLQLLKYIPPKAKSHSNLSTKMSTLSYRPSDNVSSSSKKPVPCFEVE

Rattus norvegicus [9] = test: Compound at an oral dose of 3 mg/Kg was tested for the inhibition of Ang-II induced pressor responses in conscious rats; assay type: functional
Oryctolagus cuniculus [10] = species: Oryctolagus cuniculus; test: PD' 2 value was evaluated for antagonistic activity in rabbit aorta; assay type: functional
Rattus norvegicus [11] = test: Oral effective dose required for inhibition of pressor response in conscious rats; assay type: functional
Rattus norvegicus [12] = test: Effective dose was evaluated in pithed normotensive rats by oral administration; assay type: functional
Rattus norvegicus [13] = species: Rattus norvegicus; test: pD'2 value was evaluated against in rat portal vein; assay type: functional
[14] = Inhibitory activity was evaluated against Angiotensin II receptor, type 2
Rattus norvegicus [15] = test: Effective dose was evaluated in pithed normotensive rats by intraveneous administration; assay type: functional; conditions: iv
Rattus norvegicus [16] = species: Rattus norvegicus; test: Oral effective dose required for inhibition of Ang II pressor response in rats; assay type: functional
Rattus norvegicus [17] = test: Dose dependent inhibition of pressor responses to Ang-II in conscious normotensive rat by bolus intravenous administration; assay type: functional; conditions: read-out: ID50 (the source's name)
Rattus norvegicus [18] = test: Dose dependent inhibition of pressor responses to Ang-II receptor in conscious normotensive rat by intraduodenal administration; assay type: functional; conditions: read-out: ID50 (the source's name)
Canis familiaris = test: Compound at an oral dose of 30 mg/Kg was tested for the inhibition of Ang-II induced pressor responses in conscious dog; assay type: functional; conditions: Canis lupus familiaris
Oryctolagus cuniculus [19] = species: Oryctolagus cuniculus; test: as §1; assay type: functional, organism-based
HASMC [20] = test: Inhibitory activity against Ang II-induced proliferation of human aortic smooth muscle cells in a dose-dependent manner; assay type: functional, cell-based
Rattus norvegicus [21] = test: Oral effective dose required for inhibition of Ang II pressor response in conscious rat; assay type: functional
Rattus norvegicus [22] = species: Rattus norvegicus; test: pA2 value was evaluated against angiotensin II-induced aldosterone release in rat adrenal cortical cells; assay type: functional, cell-based; conditions: read-out: pA2 (converted)
[23] = Oral bioavailability was evaluated in rhesus monkey; assay type: ADME, organism-based, Macaca mulatta; conditions: in vivo
[24] = Oral bioavailability was evaluated in rat by oral administration; assay type: ADME, organism-based; conditions: in vivo
Rattus norvegicus [25] = test: Intravenous effective dose required for inhibition of Ang II pressor response in conscious rat; assay type: functional
HASMC [26] = test: Inhibitory activity against Ang II-induced proliferation of human aortic smooth muscle cells in a dose dependent manner; assay type: functional, cell-based
Rattus norvegicus [27] = test: Intravenous effective dose required for lowering blood pressure in renal hypertensive rats (RHR); assay type: functional

Log Ki [3]: -8.7
Structure (SMILES): COc1c(OCc2ccc(-c3ccccc3-c3nn[nH]n3)cc2)cc(C)nc1C
ED50 (Rattus norvegicus [1]): 2.5 mg/kg
ED50 (Rattus norvegicus [2]): 0.48 mg/kg

bioavailability [4]: > 50%
bioavailability [5]: > 50%
Ki [3]: 0.76 nM
bioavailability [6]: > 50%
Structure (SMILES): CCCN(Cc1ccc(-c2ccccc2-c2nn[nH]n2)cc1)c1ncccc1C(=O)O

Ki [8]: 0.9 nM
Structure (SMILES): CCCCc1nc(C)n(Cc2sccc2C(=O)OC)c(=O)c1Cc1ccc(-c2ccccc2-c2nnn[nH]2)cc1
pKb (Oryctolagus cuniculus [7]): 9.5

Structure (SMILES): CCc1nc2c(C)cc(C)nc2n1Cc1ccc2c(c1)C(Cc1nnn[nH]1)c1ccccc1-2 (stereo not given)
inhibition in vivo at 3 mg/kg (Rattus norvegicus [9]): 73%

Structure (SMILES): CCc1nc2c(n1Cc1ccc(-c3ccccc3-c3nn[nH]n3)cc1)/C(=C/C(=O)O)CCCC2
PD' 2 (Oryctolagus cuniculus [10]): 9.91

Structure (SMILES): CCCCc1nc(Cl)c(C(=O)OC(C)OC(=O)OCC)n1Cc1ccc(-c2ccccc2-c2nn[nH]n2)cc1 (stereo not given)
ED50 (Rattus norvegicus [11]): 0.5 mg/kg

IC50 [14]: 920 nM
Structure (SMILES): CCCCc1nc(SC)c(C(=O)O)n1Cc1ccc(-c2ccccc2S(=O)(=O)NC(=O)NCCC)cc1
ED50 (Rattus norvegicus [12]): 0.7 mg/kg
pD'2 (Rattus norvegicus [13]): 10.15
ED50 (Rattus norvegicus [15]): 0.11 mg/kg

Structure (SMILES): CCOc1nc2cccc(C(=O)OC(C)OC(=O)OC3CCCCC3)c2n1Cc1ccc(-c2ccccc2-c2nn[nH]n2)cc1 (stereo not given) [CANDESARTAN CILEXETIL]
ED50 (Rattus norvegicus [16]): 0.069 mg/kg

Structure (SMILES): CCCCc1ncc(/C=C(\Cc2cccs2)C(=O)O)n1Cc1ccc(C(=O)O)cc1 [EPROSARTAN]
ED50 (Rattus norvegicus [17]): 0.08 mg/kg
ED50 (Rattus norvegicus [18]): 5.5 mg/kg

Structure (SMILES): CCCCc1nc(CCCC)n(Cc2ccc(-c3ccccc3-c3nnn[nH]3)nc2)n1 [FORASARTAN]
inhibition in vivo at 30 mg/kg (Canis familiaris): 91%

IC50 (Oryctolagus cuniculus [19]): 4 nM
Structure (SMILES): CCCCC1=NC2(CCCC2)C(=O)N1Cc1ccc(-c2ccccc2-c2nnn[nH]2)cc1 [IRBESARTAN]
IC50 (HASMC [20]): 320 nM

bioavailability [4]: 100%
bioavailability [23]: 32%
bioavailability [24]: 70%
Structure (SMILES): CCc1nc2c(C)cc(C)nc2n1Cc1ccc(-c2ccccc2-c2nn[nH]n2)cc1 [L-158809]
Kb (Oryctolagus cuniculus [7]): 0.28 nM
pKB (Oryctolagus cuniculus [7]): 9.3
ED50 (Rattus norvegicus [21]): 0.023 mg/kg
Kb (Rattus norvegicus [22]): 0.0316 nM
ED50 (Rattus norvegicus [25]): 0.029 mg/kg

Structure (SMILES): CCCCc1nc(Cl)c(CO)n1Cc1ccc(-c2ccccc2-c2nnn[nH]2)cc1 [LOSARTAN]
Kb (Oryctolagus cuniculus [7]): 22 nM
pKB (Oryctolagus cuniculus [7]): 8.2
ED30 (Rattus norvegicus [1]): 0.59 mg/kg
IC50 (HASMC [26]): 0.71 nM
ED30 (Rattus norvegicus [27]): 0.78 mg/kg

— ChEMBL document CHEMBL1129469, “Nonpeptide angiotensin II receptor antagonists: the next generation in antihypertensive therapy” (J Med Chem, 1996)
